Test results taken from the supplement of paper PMC10307832.

Legend:
Experiment in all cases: relative viability (nuclei count vs DMSO), 5 days (fraction); higher = more cells survive
Linifanib + Dasatinib = compound: Cc1ccc(F)c(NC(=O)Nc2ccc(-c3cccc4[nH]nc(N)c34)cc2)c1 [Linifanib] + Cc1nc(Nc2ncc(C(=O)Nc3c(C)cccc3Cl)s2)cc(N2CCN(CCO)CC2)n1 [Dasatinib] (partner 0.075 µM)
Procedure, shortened: (§1)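 One day after seeding in 1536-well plates, lung cancer cell lines were dosed by pin tool. Dosing was either single-drug or a fixed anchor-drug dose plus five library-drug doses (not always all listed) in √10 steps. After 5 days, nuclei were stained in one fix-and-stain step and counted on 4× images, and relative viability is the nuclei count of treated wells over that of vehicle wells, given as the median of duplicate plates.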

Linifanib + Pictilisib = compound: Cc1ccc(F)c(NC(=O)Nc2ccc(-c3cccc4[nH]nc(N)c34)cc2)c1 [Linifanib] + CS(=O)(=O)N1CCN(Cc2cc3nc(-c4cccc5[nH]ncc45)nc(N4CCOCC4)c3s2)CC1 [Pictilisib] (partner 1 µM)
Procedure, shortened: as §1

Linifanib + Trametinib = compound: Cc1ccc(F)c(NC(=O)Nc2ccc(-c3cccc4[nH]nc(N)c34)cc2)c1 [Linifanib] + CC(=O)Nc1cccc(-n2c(=O)n(C3CC3)c(=O)c3c(Nc4ccc(I)cc4F)n(C)c(=O)c(C)c32)c1 [Trametinib] (partner 0.02 µM)
Procedure, shortened: as §1

Linifanib + Palbociclib = compound: Cc1ccc(F)c(NC(=O)Nc2ccc(-c3cccc4[nH]nc(N)c34)cc2)c1 [Linifanib] + CC(=O)c1c(C)c2cnc(Nc3ccc(N4CCNCC4)cn3)nc2n(C2CCCC2)c1=O [Palbociclib] (partner 0.5 µM)
Procedure, shortened: as §1

Linifanib + Alpelisib = compound: Cc1ccc(F)c(NC(=O)Nc2ccc(-c3cccc4[nH]nc(N)c34)cc2)c1 [Linifanib] + Cc1nc(NC(=O)N2CCC[C@H]2C(N)=O)sc1-c1ccnc(C(C)(C)C(F)(F)F)c1 [Alpelisib] (partner 2 µM)
Procedure, shortened: as §1

Linifanib + Lapatinib = compound: Cc1ccc(F)c(NC(=O)Nc2ccc(-c3cccc4[nH]nc(N)c34)cc2)c1 [Linifanib] + CS(=O)(=O)CCNCc1ccc(-c2ccc3ncnc(Nc4ccc(OCc5cccc(F)c5)c(Cl)c4)c3c2)o1 [Lapatinib] (partner 2 µM)
Procedure, shortened: as §1

Cell Line | relative viability (Linifanib + Dasatinib; first compound 0.03162 µM) | relative viability (Linifanib + Dasatinib; first compound 0.1 µM) | relative viability (Linifanib + Dasatinib; first compound 0.3162 µM) | relative viability (Linifanib + Pictilisib; first compound 0.03162 µM) | relative viability (Linifanib + Pictilisib; first compound 0.1 µM) | relative viability (Linifanib + Pictilisib; first compound 0.3162 µM) | relative viability (Linifanib + Trametinib; first compound 0.03162 µM) | relative viability (Linifanib + Trametinib; first compound 0.1 µM) | relative viability (Linifanib + Trametinib; first compound 0.3162 µM) | relative viability (Linifanib + Palbociclib; first compound 0.03162 µM) | relative viability (Linifanib + Palbociclib; first compound 0.1 µM) | relative viability (Linifanib + Palbociclib; first compound 0.3162 µM) | relative viability (Linifanib + Alpelisib; first compound 0.03162 µM) | relative viability (Linifanib + Alpelisib; first compound 0.1 µM) | relative viability (Linifanib + Alpelisib; first compound 0.3162 µM) | relative viability (Linifanib + Lapatinib; first compound 0.03162 µM) | relative viability (Linifanib + Lapatinib; first compound 0.1 µM) | relative viability (Linifanib + Lapatinib; first compound 0.3162 µM)
UMC-11 | 0.42 | 0.491 | 0.466 | 0.859 | 0.865 | 0.819 | 0.807 | 0.721 | 0.774 | 0.342 | 0.309 | 0.335 | 0.945 | 1.15 | 0.99 | 1 | 1.1 | 1.06
NCI-H1395 | 0.3 | 0.394 | 0.405 | 0.676 | 0.715 | 0.525 | 0.943 | 0.882 | 0.933 | 0.656 | 0.673 | 0.691 | 1.2 | 1.02 | 1.08 | 0.986 | 0.982 | 1.14
NCI-H1993 | 0.683 | 0.551 | 0.681 | 0.838 | 0.77 | 0.963 | 0.623 | 0.593 | 0.61 | 0.688 | 0.826 | 0.725 | 0.628 | 0.711 | 0.646 | 0.796 | 0.853 | 0.878
EPLC-272H | 0.324 | 0.418 | 0.51 | 0.355 | 0.324 | 0.28 | 0.254 | 0.292 | 0.274 | 0.333 | 0.338 | 0.294 | 0.75 | 1.02 | 0.909 | 0.956 | 0.913 | 0.814
NCI-H1975 | 0.396 | 0.367 | 0.344 | 0.298 | 0.3 | 0.367 | 0.298 | 0.525 | 0.355 | 0.6 | 0.783 | 0.551 | 0.631 | 0.715 | 0.65 | 0.898 | 1.11 | 0.874
NCI-H1650 | 0.327 | 0.348 | 0.252 | 0.661 | 0.671 | 0.5 | 0.563 | 0.673 | 0.541 | 0.35 | 0.399 | 0.351 | – | – | – | 0.797 | 0.9 | 0.721
ChaGo-K-1 | 0.721 | 0.727 | 0.558 | 0.697 | 0.783 | 0.741 | 0.904 | 0.942 | 0.86 | 0.984 | 0.881 | 0.916 | – | – | – | – | – | –
ABC-1 | 0.546 | 0.555 | 0.589 | 0.759 | 0.953 | 0.742 | – | – | – | 0.754 | 0.797 | 0.787 | 0.928 | 1.05 | 0.927 | 1.15 | 1.13 | 0.93
NCI-H441 | 0.646 | 0.705 | 0.639 | 0.493 | 0.519 | 0.479 | 0.457 | 0.518 | 0.409 | 0.222 | 0.24 | 0.228 | 0.649 | 1.05 | 0.735 | – | – | –
LCLC-103H | 0.434 | 0.621 | 0.399 | 0.71 | 0.596 | 0.693 | 0.721 | 0.669 | 0.64 | 0.474 | 0.417 | 0.464 | 0.838 | 0.927 | 0.894 | – | – | –
